Values of other authors in patent US20080103199A1, “TREATMENT OF PERVASIVE DEVELOPMENTAL DISORDERS” (priority 2006, published 2008).

Columns and labels:
[1] = tested on: submissive rats; settings: treatment of the submissive subject, 3 weeks; literature (Malatynska 2002); cited from earlier work
[2] = tested on: dominant rats; settings: administered to dominant rats; literature (Malatynska 2002); cited from earlier work

## CNCCCN1c2ccccc2CCc2ccccc21 [desipramine]
[1]
  Effect on submissive behavior: reduced submissive behavior

## CN1C(=O)CN=C(c2ccccc2)c2cc(Cl)ccc21 [diazepam]
[1]
  Effect on submissive behavior: ineffective

## CNCCC(Oc1ccc(C(F)(F)F)cc1)c1ccccc1 (centres unmarked) [fluoxetine]
[1]
  Effect on submissive behavior: reduced submissive behavior

## CN(C)CCCN1c2ccccc2CCc2ccccc21 [imipramine]
[1]
  Effect on submissive behavior: reduced submissive behavior

## CCCC(CCC)C(=O)[O-].[Na+] [sodium valproate]
[2]
  Effect on competitive behavior of dominant rats: significantly reduced competitive behavior
